# In patent US8748462B2, “Spirocyclic GPR40 modulators” (Amgen Inc., priority 2008, dated 2014):
# Target: T1, human GPR40 (Homo sapiens, UniProt O14842)
# T1 construct: expressed in transfected cells; host or cells: CHO cells stably transfected with GPR40 and Aequorin
# Experiment: Cell-based aequorin assay
# Details: CHO cells stably transfected with GPR40 and aequorin; 0.01% HSA
# Method: Cell-based aequorin assays were employed to characterize the modulatory activity of compounds on the GPR40 signaling pathway. In an exemplary assay, CHO cells were stably transfected with both GPR40 and Aequorin (Euroscreen). Cells were detached from the tissue culture dish with 2 mL of trypsin (0.25% (w/v)). Trypsinization was halted with 28 mL of Hanks Buffered Salt Solution containing 20 mM Hepes (H/HBSS) and 0.01% fatty acid-free human serum albumin (HSA). Coelantrazine is added to 1 ug/mL, and the cells were incubated for 2 hours at room temperature. Compounds were dissolved in DMSO for preparation of 10 mM stock solutions. Compounds were diluted in H/HBSS containing 0.01% HSA. Serial dilutions of the test compounds were prepared to determine dose response.
# Aequorin luminescence measurements were made using an EG&G Berthold 96-well luminometer, and the response was measured over a 20 second interval after cells and compounds were mixed. The maximum relative light units was plotted to determine dose response. The EC50 (effective concentration to reach 50% maximal response) was determined from the dose response plot.
# T1 sequence (O14842 whole entry): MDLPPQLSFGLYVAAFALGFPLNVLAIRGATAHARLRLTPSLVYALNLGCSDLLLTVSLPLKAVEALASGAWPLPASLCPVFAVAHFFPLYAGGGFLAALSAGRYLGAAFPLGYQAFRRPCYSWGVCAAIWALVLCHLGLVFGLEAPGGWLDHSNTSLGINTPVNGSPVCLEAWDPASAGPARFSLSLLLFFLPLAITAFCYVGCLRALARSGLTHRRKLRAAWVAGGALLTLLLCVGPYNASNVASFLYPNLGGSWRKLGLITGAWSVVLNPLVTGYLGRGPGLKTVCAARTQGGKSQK
row,Structure (SMILES),EC50 [µM]
1,"COc1ccc(F)c(-c2ccc(COc3ccc4c(c3)C3(CC4)CCC3C(=O)O)cc2C(OC)C(C)(C)C)c1 (single isomer, unassigned) [Example 147]",0.1 to 1
2,"COc1ccc(F)c(-c2ccc(COc3cc(F)c4c(c3F)[C@@]3(CC4)C[C@H]3C(=O)O)cc2[C@H]2CCCC2(C)C)c1 (single isomer, unassigned) [Example 36]",> 10
3,CO[C@@H](c1cc(COc2ccc3c(c2)[C@]2(CCC3)C[C@H]2C(=O)O)ccc1-c1ccnc(C(F)(F)F)c1)C(C)(C)C (racemic) [Example 136],1 to 10
4,"COc1ccc(F)c(-c2ccc(COc3ccc4c(c3)[C@]3(CC4)CC[C@@H]3C(=O)O)cc2[C@@H](OC)C(C)(C)C)c1 (single isomer, unassigned) [Example 145]",1 to 10
5,COc1ccc(F)c(-c2cc(COc3ccc4c(c3)[C@]3(CC4)C[C@H]3C(=O)O)ccc2C(C)(C)C)c1 [Example 5],1 to 10
6,CO[C@@H](c1cc(COc2ccc3c(c2)[C@]2(CCC3)C[C@H]2C(=O)O)ccc1-c1cncs1)C(C)(C)C (racemic) [Example 135],1 to 10
7,"COc1ccc(F)c(-c2ccc(COc3ccc4c(c3)C3(CCC4)CCC3C(=O)O)cc2C(OC)C(C)(C)C)c1 (single isomer, unassigned) [Example 157]",1 to 10
8,COc1ccc(F)c(-c2cc(COc3ccc4c(c3)[C@]3(CC4)C[C@@H]3C(=O)O)ccc2C(C)(C)C)c1 [Example 7],> 10
9,"COc1ccc(F)c(-c2ccc(COc3cc(F)c4c(c3F)[C@]3(CC4)C[C@H]3C(=O)O)cc2[C@@H](OC)C(C)(C)C)c1 (single isomer, unassigned) [Example 37]",0.01 to 0.1
10,"C=CC(C)(C)c1cc(COc2ccc3c(c2)[C@]2(CC3)C[C@H]2C(=O)O)ccc1-c1cc(OC)ncc1F [Example 123, (1R,2R)-6′-(4-(5-Fluoro-2-methoxypyridin-4-yl)-3-(2-methylbut-3-en-2-yl)benzyloxy)-2′,3′-dihydrospiro[cyclopropane-1,1′-indene]-2-carboxylic acid]",1 to 10
11,COc1ccc(F)c(-c2cc(COc3ccc4c(c3)[C@@]3(CC4)C[C@@H]3C(=O)O)ccc2C(C)(C)C)c1 [Example 6],> 10
12,COc1ccc(F)c(-c2ccc(COc3ccc4c(c3)[C@]3(CC4)C[C@H]3C(=O)O)cc2-c2nncn2C(C)C)c1 [Example 29],> 10
13,"COc1ccc(COc2ccc3c(c2)[C@]2(CCC3)C[C@H]2C(=O)O)cc1[C@@H]1CCCC1(C)C (single isomer, unassigned) [Example 128]",1 to 10
14,CO[C@@H](c1cc(COc2ccc3c(c2)[C@]2(CCC3)C[C@H]2C(=O)O)ccc1-c1cncc(F)c1)C(C)(C)C (racemic) [Example 138],1 to 10
15,COc1ccc(F)c(-c2cc(COc3ccc4c(c3)[C@@]3(CC4)C[C@H]3C(=O)O)ccc2C(C)(C)C)c1 [Example 8],> 10
16,"O=C(O)[C@@H]1C[C@]12CCc1ccc(Oc3ccc(C(F)(F)F)c(Br)c3)cc12 [Example 124, (1R,2R)-6′-(3-Bromo-4-(trifluoromethyl)phenoxy)-2′,3′-dihydrospiro[cyclopropane-1,1′-indene]-2-carboxylic acid]",1 to 10
17,"COc1ccc(F)c(-c2ccc(COc3cc(F)c4c(c3F)[C@@]3(CC4)C[C@H]3C(=O)O)cc2[C@@H](OC)C(C)(C)C)c1 (single isomer, unassigned) [Example 40]",1 to 10
18,"COc1ccc(F)c(-c2ccc(COc3cc(F)c4c(c3F)[C@]3(CC4)C[C@@H]3C(=O)O)cc2[C@H]2CCCC2(C)C)c1 (single isomer, unassigned) [Example 35]",> 10
19,"COc1ccc(F)c(-c2ccc(COc3cc(F)c4c(c3F)[C@]3(CC4)C[C@@H]3C(=O)O)cc2[C@@H](OC)C(C)(C)C)c1 (single isomer, unassigned) [Example 39]",1 to 10
20,"COc1cc(-c2ccc(COc3cc(F)c4c(c3F)[C@]3(CC4)C[C@H]3C(=O)O)cc2[C@@H]2CCCC2(C)C)c(F)cn1 (single isomer, unassigned) [Example 42]",1 to 10
21,"CC1(C)CCC(C)(C)c2cc(COc3ccc4c(c3)[C@]3(CC4)C[C@H]3C(=O)O)ccc21 [Example 104, (1R,2R)-6′-((5,5,8,8-tetramethyl-5,6,7,8-tetrahydro-2-naphthalenyl)methoxy)-2′,3′-dihydrospiro[cyclopropane-1,1′-indene]-2-carboxylic acid]",> 10
22,COc1ccc(F)c(-c2ccc(COc3ccc4c(c3)[C@@]3(CC4)C[C@@H]3C(=O)O)cc2C2=CCCC2(C)C)c1 [Example 2],> 10
23,CO[C@@H](c1cc(COc2ccc3c(c2)[C@]2(CCC3)C[C@H]2C(=O)O)ccc1Br)C(C)(C)C (racemic) [Example 132],1 to 10
24,C=CC1(c2cc(COc3ccc4c(c3)[C@]3(CC4)C[C@H]3C(=O)O)ccc2-c2cc(OC)ncc2F)CCCC1 [Example 26],1 to 10
25,COCC1(c2cc(COc3ccc4c(c3)[C@]3(CC4)C[C@H]3C(=O)O)ccc2-c2cc(OC)ncc2F)CCCC1 [Example 27],1 to 10

# Second part, the compound after the results:
row,EC50 [µM],Structure (SMILES)
1,> 10,"COc1ccc(F)c(-c2ccc(COc3ccc4c(c3)[C@@]3(CC4)C[C@@H]3C(=O)O)cc2[C@H]2CCCC2(C)C)c1 (single isomer, unassigned) [Example 10]"
2,1 to 10,"COc1cc(-c2ccc(COc3ccc4c(c3)[C@]3(CCC4)CC[C@@H]3C(=O)O)cc2[C@@H]2CCCC2(C)C)c(F)cn1 (single isomer, unassigned) [Example 153]"
3,0.01 to 0.1,"COc1cc(-c2cc(F)c(COc3ccc4c(c3)[C@]3(CCC4)C[C@H]3C(=O)O)cc2[C@H]2CCCC2(C)C)c(F)cn1 (single isomer, unassigned) [Example 43]"
4,1 to 10,"C=CC(C)(C)[C@@H]1c2cc(COc3ccc4c(c3)[C@]3(CC4)C[C@H]3C(=O)O)ccc2-c2c(F)ccc(OC)c21 (single isomer, unassigned) [Example 23]"
5,1 to 10,"COc1ccc(F)c(-c2ccc(COc3cc(F)c4c(c3F)[C@@]3(CC4)C[C@@H]3C(=O)O)cc2[C@@H](OC)C(C)(C)C)c1 (single isomer, unassigned) [Example 38]"
6,> 10,COc1ccc(F)c(-c2ccc(COc3ccc4c(c3)[C@@]3(CCC4)C[C@@H]3C(=O)O)cc2C2=CCCC2(C)C)c1 [Example 50]
7,1 to 10,"COc1ccc(F)c(-c2ccc(COc3ccc4c(c3)[C@]3(CCC4)CC[C@@H]3C(=O)O)cc2[C@@H](OC)C(C)(C)C)c1 (single isomer, unassigned) [Example 152]"
8,1 to 10,COc1ccc(F)c(-c2ccc(COc3ccc4c(c3)[C@@]3(CC4)C[C@H]3C(=O)O)cc2C2=CCCC2(C)C)c1 [Example 4]
9,0.1 to 1,"COc1ccc(F)c(-c2ccc(COc3ccc4c(c3)[C@]3(CC4)CC[C@@H]3C(=O)O)cc2[C@@H]2CCCC2(C)C)c1 (single isomer, unassigned) [Example 146]"
10,> 10,COc1ccc(F)c(-c2ccc(COc3ccc4c(c3)[C@]3(CC4)C[C@@H]3C(=O)O)cc2C2=CCCC2(C)C)c1 [Example 3]
11,0.1 to 1,C=CC(C)(C)[C@H]1c2cc(COc3ccc4c(c3)[C@]3(CC4)C[C@H]3C(=O)O)ccc2-c2c(F)ccc(OC)c21 (racemic) [Example 21]
12,1 to 10,COc1ccc(Cl)c(-c2ccc(COc3ccc4c(c3F)[C@@]3(CC4)C[C@@H]3C(=O)O)cc2[C@@H]2CCCC2(C)C)n1 (stereo in doubt) [Example 126]
